Entries after “also recorded” stand apart in the source; their conditions may differ.
Tests used:
[1] = Steady-state lapatinib PK in plasma, alone and with everolimus
[2] = Part I dose escalation to define MTD and DLTs of lapatinib plus everolimus; type: in vivo, human; conditions: once daily po
[3] = cited from earlier work
[4] = system: ER-positive breast cancer; conditions: ER-positive patients with breast cancer; cited from earlier work
[5] = Steady-state everolimus PK in whole blood, alone and with lapatinib; type: in vivo, human; conditions: for Everolimus Tmax % change: p=0.06; for Tmax: Everolimus Tmax, mean (95% CI)
[6] = Phase I/II trial of everolimus and imatinib; cited from earlier work
[7] = Day 19 with everolimus vs Day 7 alone
[8] = Day 19 with lapatinib vs Day 7 alone

CS(=O)(=O)CCNCc1ccc(-c2ccc3ncnc(Nc4ccc(OCc5cccc(F)c5)c(Cl)c4)c3c2)o1 [lapatinib]
Lapatinib Cmax ([1]; Day 19, lapatinib + everolimus, steady state, plasma, mean (95% CI)): 2520 (2020–3130) μg/L
Lapatinib AUC 0-inf % change [1, 7]: essentially unchanged
Lapatinib Cmax % change [1, 7]: +7%
Lapatinib Tmax % change [1, 7]: +33%
Lapatinib AUC 0-inf % change ([1]; Day 19 with everolimus vs Day 7 alone, listed as Lapatinib): +10%
Mean lapatinib Ctrough at steady-state ([1]; alone): 800 (95% CI 600–1120) μg/L
AUC ([1]; human, plasma, oral): 33900 ng·h/mL
AUC ([1]; human, plasma, oral, 1250 mg): 37400 ng·h/mL
AUC(0-inf) ([1]; human, plasma, oral, 1250 mg): 33900 ng·h/mL
Mean lapatinib Ctrough at steady-state ([1]; in combination with everolimus): 1060 (95% CI 760–1470) μg/L
Differences in steady-state lapatinib PK with or without everolimus co-administration ([1]; paired t-test): no significant influence; also recorded: not statistically significant
Maximum tolerated dose (MTD) of lapatinib in the combination ([2]; combined with everolimus 5 mg): 1250 mg

C#Cc1cccc(Nc2ncnc3cc(OCCOC)c(OCCOC)cc23)c1 [erlotinib]
Pharmacokinetics of erlotinib with or without everolimus [3]: similar

C=C1C[C@@H]2[C@H](CC[C@]3(C)C(=O)CC[C@@H]23)[C@@]2(C)C=CC(=O)C=C12 [exemestane]
Progression-free survival [4]: 2.8 months

CO[C@H]1C[C@@H]2CC[C@@H](C)[C@@](O)(O2)C(=O)C(=O)N2CCCC[C@H]2C(=O)O[C@H]([C@H](C)C[C@@H]2CC[C@@H](OCCO)[C@H](OC)C2)CC(=O)[C@H](C)/C=C(\C)[C@@H](O)[C@@H](OC)C(=O)[C@H](C)C[C@H](C)/C=C/C=C/C=C/1C [everolimus]
Everolimus AUC 0-inf % change [5, 8]: +26%
Everolimus Cmax % change [5, 8]: −5%
Everolimus Tmax % change [5, 8]: 44%
Everolimus Tmax % change ([5]; Day 19 with lapatinib vs Day 7 alone, listed as Everolimus): +44%
Mean everolimus CL/F at steady-state ([5]; alone): 19 (95% CI 14–24) L/hr
AUC ([5]; human, whole blood, oral, 5 mg): 348 ng·h/mL
AUC(0-inf) ([5]; human, whole blood, oral, 5 mg): 348 ng·h/mL
Cmax ([5]; human, whole blood, oral, 5 mg): 37 ng/mL
Tmax ([5]; human, whole blood, oral, 5 mg, Day 7, everolimus alone): 1.6 h
Tmax ([5]; human, whole blood, oral, Day 19, everolimus + lapatinib): 2.3 h
Mean everolimus CL/F at steady-state ([5]; in combination with lapatinib): 14 (95% CI 11–18) L/hr
Decrease of mean everolimus CL/F ([5]; in combination with lapatinib vs alone, p=0.08): 25%
PK differences when everolimus was given in combination with lapatinib ([5]; paired t-test): did not reach statistical significance
Increase of everolimus Cmax by imatinib [6]: 2.2 fold
Increase of everolimus mean AUC by imatinib [6]: 3.7 fold
Systemic exposure to everolimus, higher with erlotinib than without [3]: 17%
Maximum tolerated dose (MTD) of everolimus in the combination ([2]; combined with lapatinib 1250 mg): 5 mg

From paper PMC4072025 (Cancer chemotherapy and pharmacology, 2013)
